The text below walks through data of patent US9085582B2, “Benzotriazolodiazepine compounds inhibitors of bromodomains” (GlaxoSmithKline LLC, priority 2010, dated 2015).

The test concerns IL-6. Nature of the test: Measurement of LPS induced IL-6 secretion from whole blood. The note with it: LPS 200 ng/ml stimulated whole blood, 24 hours, IL-6 by immunoassay. In kind it is cell-based. How it is done:
Measurement of LPS Induced IL-6 Secretion from Whole Blood
Activation of monocytic cells by agonists of toll-like receptors such as bacterial lipopolysaccharide (LPS) results in production of key inflammatory mediators including IL-6. Such pathways are widely considered to be central to the pathophysiology of a range of auto-immune and inflammatory disorders.
Compounds to be tested are diluted to give a range of appropriate concentrations of which 1 ul of the diluted stocks is added to a 96 well plate. Following addition of whole blood (130 ul) the plates are incubated at 37 degrees (5% CO2) for 30 min before the addition of 10 ul of 2.8 ug/ml LPS, diluted in complete RPMI 1640 (final concentration=200 ng/ml), to give a total volume of 140 ul per well. After further incubation for 24 hours at 37 degrees, 140 ul of PBS are added to each well. The plates are sealed, shaken for 10 minutes and then centrifuged (2500 rpm×10 min). 100 ul of the supernatant are removed and IL-6 levels assayed by immunoassay (typically by MesoScale Discovery technology) either immediately or following storage at −20 degrees. Concentration response curves for each compound was generated from the data and an IC50 value was calculated

Molecules are shown by their SMILES. Some results are limits rather than exact numbers.

In general, IC50 refers to the concentration at which inhibition is half-maximal. Read a high IC50 as weaker potency. Turning to `CCNC(=O)C[C@@H]1N=C(c2ccc(Cl)cc2)c2cc(-c3ccccc3)ccc2-n2c(C)nnc21` [Example 1, 2-[(4S)-6-(4-Chlorophenyl)-1-methyl-8-phenyl-4H-[1,2,4]triazolo[4,3-a][1,4]benzodiazepin-4-yl]-N-ethylacetamide], the IC50 is at most 3.16 µM.

`CCNC(=O)C[C@@H]1N=C(c2ccc(Cl)cc2)c2cc(-c3ccc(OC)cc3)ccc2-n2c(C)nnc21` [Example 3, 2-{(4S)-6-(4-Chlorophenyl)-1-methyl-8-[4-(methyloxy)phenyl]-4H-[1,2,4]triazolo[4,3-a][1,4]benzodiazepin-4-yl}-N-ethylacetamide] gave a half-maximal inhibitory concentration (IC50) of at most 3.16 µM.

Compound `CCNC(=O)C[C@@H]1N=C(c2ccc(Cl)cc2)c2cc(-c3ccn[nH]3)ccc2-n2c(C)nnc21` [Example 4, 2-[(4S)-6-(4-Chlorophenyl)-1-methyl-8-(1H-pyrazol-5-yl)-4H-[1,2,4]triazolo[4,3-a][1,4]benzodiazepin-4-yl]-N-ethylacetamide] had an IC50 of at most 3.16 µM.

The compound `CCNC(=O)C[C@@H]1N=C(c2ccc(Cl)cc2)c2cc(-c3cn[nH]c3)ccc2-n2c(C)nnc21` [Example 5, 2-[(4S)-6-(4-Chlorophenyl)-1-methyl-8-(1H-pyrazol-4-yl)-4H-[1,2,4]triazolo[4,3-a][1,4]benzodiazepin-4-yl]-N-ethylacetamide] showed a concentration for half-maximal inhibition (IC50) of at most 3.16 µM.

As to `CCNC(=O)C[C@@H]1N=C(c2ccc(Cl)cc2)c2cc(-c3ccc(CN4CCCC4)cc3)ccc2-n2c(C)nnc21` [Example 13, (S)-2-(6-(4-Chlorophenyl)-1-methyl-8-(4-(pyrrolidin-1-ylmethyl)phenyl)-4H-benzo[f][1,2,4]triazolo[4,3-a][1,4]diazepin-4-yl)-N-ethylacetamide], the IC50 is at most 3.16 µM.
